Results published in patent US5648373A, “CoA-IT and PAF inhibitors” (SmithKline Beecham Corporation, priority 1992, dated 1997).
Entries after “also recorded” stand apart in the source; their conditions may differ.

How the values were obtained:
[1] = tested on: human neutrophils; test: Arachidonic acid release assay (assay b), A23187-challenged neutrophils; type: cell-based
Protocol: Human neutrophils were obtained in the laboratory using three different methods. One method used leukophoresis packs from normal humans and neutrophils were isolated using the histopaque-1077 technique. The blood was centrifuged at 300× g for 10 minutes. The cell pellets were resuspended in PBS composed of 137 mM NaCI, 8.8 mM Na2HPO4, 1.5 mM KH2PO4, 2.7 mM KCI (Dulbecco's Gibco Laboratories, Long Island, N.Y.) and layered over histopaque-1077 (Sigma, St. Louis, Mo.). The pellets were collected after centrifugation (300× g for 30 minutes) and washed once in PBS. The cell pellets were exposed briefly to dionized water to Iyse any erythrocytes. The remaining cells were collected by centrifugation, suspended in PBS, counted and identified after cytospinning and staining. The final leukocyte preparation was of greater than 95% purity and viability.
The second method isolated human neutrophils from fresh heparinized normal blood using the Histopaque-1077 technique. […] The remaining cells were collected by centrifugation, suspended in PBS, counted and identified after cytospinning and staining. […]
The third method isolated human neutrophils from freshly drawn heparinized normal blood using the Percoll technique. […] The neutrophils were suspended in PBS, counted and identified after cytospinning and staining. […]

[2] = tested on: mouse bone marrow-derived mast cells; test: Arachidonate content of cellular phospholipids of mast cells (method e); type: cell-based
Protocol: As treatment of intact cells blocks the movement of arachidonate into specific cellular phospholipids, it followed that prolonged treatment of inflammatory cells with CoA-IT inhibitors could deplete their large endogenous pools of arachidonate within phospholipids. To determine that CoA-IT inhibition can alter the amount of arachidonate within cellular phospholipids, mouse bone marrow-derived mast cells were treated with Compound 3 for 24 hours and the mass of arachidonate within total cellular phospholipids was determined. Compound 3 induced a concentration-dependentreduction in the total cellular arachidonate within mast cells, with greater than 75% reduction apparent at 20 μM. […]
The following is the method for assessing the ability of a compound to alter arachidonate content of cellular phospholipids, which can be generalized for any desired cell. […] The radioactive and mole quantities of arachidonate in complex lipids are determined. At this point, cellular lipid extracts are treated with KOH (0.5M) to remove fatty acids from complex lipids (phospholipids) and the quantities of arachidonate in these extracts can then be determined by various methods, including gas chromatography and mass spectrometry (Chilton [Methods Enzymol. (1990) 187, 157-166]).

[3] = tested on: TPA-induced inflammation in the mouse ear; test: TPA-induced inflammation of the mouse ear (assay d): ear thickness, myeloperoxidase; type: in vivo; details: topical TPA
Protocol: The ability of compounds that inhibit CoA-IT to affect in vivo inflammatory responses was assessed. Inflammatory responses were induced in the mouse ear by the topical application of a pro-inflammatory agent, such as 12-0-tetradecanoylphorbol 13-acetate. This produced an edematous response, as measured by increases in ear thickness, as well as increased inflammatory cellular infiltrate, as measured by increases in myeloperoxidase activity as described in the methods.
Male Balb/c inbred mice were obtained from Charle River Breeding Laboratories (Kingston, N.Y.). Within a single experiment mice (22-25 g) were age-matched. These in vivo experiments typically involved use of 5-6 animals/group.
TPA (12-0-tetradecanoylphorbol 13-acetate) (Sigma Chemical Company) in acetone (4 μg/20 μl) was applied to the inner and outer surfaces of the left ear of BALB/c male mice. The thickness of both ears was then measured with a dial micrometer (Mitutoyo, Japan) at both 2 and 4 hours after treatment, and the data expressed as the change in thickness (10-^3 cm) between treated and untreated ears. […] After measuring the edema, the inflammed left ears were removed and stored at -70° C. until they were assayed for MPO (myeloperoxidase) activity where appropriate. […]

[4] = tested on: intact human neutrophils; test: Movement of [3H]arachidonate into 1-ether-linked phospholipids in intact non-stimulated neutrophils (method e); type: cell-based; details: various concentrations, 2 hours, no cellular stimulation
Protocol: CoA-IT activity can also be measured in intact cells by following the movement of a pulse of [^3 H]arachidonate as it moves into the "pool 2" phospholipids (1-alkyl and 1-alkenyl phospholipids) in inflammatory cells. These specific studies were performed in intact human neutrophils, which contain CoA-IT activity and transfer arachidonate into 1-alkyl and 1-alkenyl phospholipids. To determine the effects of Compound 3 on this transfer of arachidonate, neutrophils were exposed briefly to [^3 H]arachidonic acid to allow incorporation of the label into 1-acyl phospholipids, treated with various concentrations of Compound 3 and the movement of [^3 H]arachidonate between phospholipid subclasses assessed over the subsequent 2 hours in the absence of cellular stimulation.
Measurement of the effect of CoA-IT inhibitors on the transfer of [^3 H]arachidonate into 1-ether phospholipids in non-stimulated inflammatory cells can be accomplished by general application of the following specific method. Human neutrophils were isolated and resuspended (5×10^7 /ml) in Hanks Balanced Salt Solution (HBSS; Gibco). […] The phospholipid subclasses were separated by TLC in benzene/hexane/ethyl ether (50:45:4, v/v), located by image analysis (Bioscan) and the amount of radioactivity in each class was determined by zonal scraping and liquid scintillation counting.

[5] = tested on: human neutrophils; test: Assay for production of platelet-activating factor (assay c), A23187-challenged neutrophils; type: cell-based
Protocol: Blood was obtained from normal humans and neutrophils were isolated as described for the arachidonic acid release assay, above. The final leukocyte preparation was of greater than 95% purity and viability.
Neutrophils were suspended in PBS at concentrations of 5 to 20×10^6 cells per ml. Cells were added to test tubes and treated with the desired compounds for 5 to 10 minutes, then challenged with calcium ionophore A23187, 2 μM and 20-30 μCi of [^3 H]acetic acid (NEN-Dupont, Boston, Mass.), or the vehicle of PBS with 0.25-1 mg/ml […]. After 5 to 20 minutes, the reactions were terminated by addition of an equal volume of chloroform:methanol (1:2, v/v) to the samples and the lipids were extracted by addition of equal volumes of chloroform and distilled water. The samples were vortexed and centrifuged at high speed and the chloroform layer removed to a clean tube.
The chloroform from each tube was evaporated to dryness and the material suspended in a small volume of chloroform or chloroform:methanol (25-100 μl) and the total material spotted on a Silica TLC plate. The plates were developed in chloroform/methanol/acetic acid/water (50:25:8:4, v/v) visualized by radioscanning (Bioscan) and the product, [^3 H]PAF, was scraped and quantified by liquid scintillation spectroscopy. With this TLC system, the Rf value for a synthetic standard of PAF was approximately 0.33.

## CCOP(=O)(CCCCCCCn1c(-c2ccccc2)c(-c2ccccc2)n(-c2ccccc2)c1=O)OCC [Compound 3, Diethyl 7-(3-4-5-triphenyl-2-oxo-2-3-dihydroimidazol-1-yl)heptane phosphonate]
[1]
  inhibition of free arachidonic acid release: completely and in a concentration dependent fashion; also recorded: inhibition
[2]; 24 hours, various concentrations
  loss of arachidonate from all major phospholipid classes of the mast cell: concentration-dependent loss
[2]; mast cells
  loss in the mass of 18:0, 18:1, 18:2 from PI, PE and PC: no loss
[3]; listed as Example 3
  anti-inflammatory effect in vivo (TPA-induced mouse ear inflammation): positive inhibition; also recorded: anti-inflammatory responses
[3]; listed as compound 3
  anti-inflammatory effect in vivo (TPA-induced mouse ear inflammation): anti-inflammatory effect
[4]
  movement of [3H]arachidonate into 1-ether-linked phospholipids, 1-alkyl PC and 1-alkenyl PE: concentration-dependent blockade; also recorded: completely block
[4]; listed as Example 3
  movement of [3H]arachidonate into 1-ether-linked phospholipids, 1-alkyl PC and 1-alkenyl PE: concentration-dependent blockade
[5]
  inhibition of PAF production: completely and in a concentration dependent fashion; also recorded: inhibition
